Tests used:
MCF7 = experiment: Antitumor activity against human MCF7 cells incubated for 48 hrs by CCK8 assay; type: functional, cell-based; settings: MCF7, 48 h
NCI/ADR-RES [1] = experiment: Cytotoxicity against human MCF7ADR cells assessed as cell survival rate at 5 uM incubated for 48 hrs by CCK8 assay relative to control; type: functional
NCI/ADR-RES [2] = experiment: Cytotoxicity against human MCF7ADR cells assessed as cell survival rate at 1 uM incubated for 48 hrs by CCK8 assay relative to control; type: functional
NCI/ADR-RES [3] = experiment: Reversal activity against doxorubicin-mediated resistance in human MCF7ADR cells assessed as reversal fold by measuring ratio of doxorubicin IC50 to doxorubicin IC50 in presence of test compound at 1 uM incubated for 48 hrs by CCK8 assay; type: functional

| SMILES | IC50 (MCF7) [nM] | Activity (NCI/ADR-RES [1]) [%] | Activity (NCI/ADR-RES [2]) [%] | fold change (FC) (NCI/ADR-RES [3]) |
| --- | --- | --- | --- | --- |
| CC(=O)O[C@H]1C(=O)[C@@]2(C)[C@H]([C@H](OC(=O)c3ccccc3)[C@]3(O)C[C@H](OC(=O)[C@H](O)[C@@H](NC(=O)c4ccccc4)c4ccccc4)C(C)=C1C3(C)C)[C@]1(OC(C)=O)CO[C@@H]1C[C@@H]2O [PACLITAXEL] | 550 |  |  |  |
| COc1cc2c(cc1OC)CN(C(=O)c1ccc(-c3ccc(NC(=O)c4ccco4)cc3)o1)CC2 |  | 11.3 | 80.6 |  |
| CC[C@]1(O)C[C@H]2CN(CCc3c([nH]c4ccccc34)[C@@](C(=O)OC)(c3cc4c(cc3OC)N(C=O)[C@H]3[C@@](O)(C(=O)OC)[C@H](OC(C)=O)[C@]5(CC)C=CCN6CC[C@]43[C@@H]65)C2)C1 [VINCRISTINE] | 900 |  |  |  |
| COc1cccc2c1C(=O)c1c(O)c3c(c(O)c1C2=O)C[C@@](O)(C(C)=O)C[C@@H]3O[C@H]1C[C@H](N)[C@H](O)[C@H](C)O1 [DAUNORUBICIN] | 980 |  |  |  |
| COc1cc2c(cc1OC)CN(C(=O)c1ccc(-c3ccc(NC(=O)c4cccs4)cc3)o1)CC2 |  | 26 | 92.3 |  |
| COc1cc2c(cc1OC)CN(C(=O)c1ccc(-c3ccc(NC(=O)c4cccnc4)cc3)o1)CC2 |  | 14.7 | 72.4 | 2.2 |

Reference: ChEMBL document CHEMBL5620359, “Discovery of 2,5-disubstituted furan derivatives featuring a benzamide motif for overcoming P-glycoprotein mediated multidrug resistance in MCF-7/ADR cell” (Eur J Med Chem, 2023)
